From patent US20220296526A1, “CANNABINOID COMPOSITIONS, METHODS OF MAKING SAME AND USES THEREOF” (HEXO OPERATIONS INC., priority 2019, published 2022)
Several values for one entry are separate records, joined by “and”; a condition that tells them apart may be missing. Identical values can stand only once.

Assay: DLS particle size tracking around spray drying (nanoemulsion, solubilized carrier, pre-spray dried mixture, re-hydrated powder)
Format: physicochemical
Settings: solubilized carrier alone, 0.4 g/ml
Description: Particle size of all nanoemulsions was measured in water solution at 25° C. using dynamic light scattering (DLS). All samples in the present disclosure have been analyzed at a dilution of 1/20 in purified water using a LiteSizer™ (Anton Paar GmbH, Germany).
The resulting spray dried emulsion powder was analyzed by performing a rehydration and then performing a visual inspection for turbidity and DLS analysis for particle size tracking of the generated emulsion (see Table 9).

OC[C@@H](O)[C@@H](O)[C@H](O)[C@H](O)CO [Pearlitol (Mannitol), Mannitol]
Particle Size Carrier: 287 nm, poor signal and 225 nm, poor signal
